According to patent publication US8038984B2, “Membrane-permeant peptide complexes for treatment of sepsis” (Washington University, priority 1998, dated 2011):
Numbered stars: 1 amine (or outer) side, 2 acyl side, 3 side chain; on linkers, the order of the positions; unused ones are H or OH. Square brackets hold non-standard residues; d marks the D form. Ends that are not written are not given here. εLys = N[C@@H](CCCCN[*:1])C(=O)[*:2]; D‑k∗gc = not defined here; K∗GC = not defined here; Ahx = NCCCCCC(=O)O

Columns and labels:
[1] = tested on: human Jurkat leukemia cells; assay: Cell accumulation (uptake) of Tc-99m-Tat-peptide complexes in Jurkat cells; assay type: cell-based; details: for Jurkat Cell Uptake: Table 2, radiolabeled (99mTc) peptides, net cell uptake; for effect of inhibitor on net cell uptake of the Tat-peptide metal complex: colchicine 100 ng/ml, taxol 1 μM, nocodozole 5 μg/ml, cytochalasin D 1 μM, brefeldin A 2.5 μg/ml, wortmannin 100 nM; for 20 min Uptake: [99mTc] complexes, 37° C.; for U/W Ratio: uptake/washout ratio
Protocol: Control solution for cell uptake experiments was a modified Earle's balanced salt solution (MEBSS) containing (mM): 145 Na^+, 5.4 K^+, 1.2 Ca^2+, 0.8 Mg^2+, 152 Cl^−, 0.8 H2PO4^−, 0.8 SO4^2−, 5.6 dextrose, 4.0 HEPES, and 1% bovine calf serum (vol/vol), pH 7.4±0.05. A 130 mM K^+/20 mM Cl^− solution was made by equimolar substitution of potassium methanesulfonate for NaCl as described by Piwnica-Worms et al. (J. Gen. Physiol., 81:731-748, 1983).
(§1) Characterization of accumulation of Tc-99m-peptide complex was also performed for nonadherent cell lines such as human Jurkat leukemia cells with minor modifications of methods described in the literature (Bosch et al., Leukemia, 11: 1131-1137, 1997). Transport experiments were performed in siliconized microfuge tubes and initiated by addition of 732.5 μl of cells at 2-3×10^6 cells/ml to 10 μl of buffer containing Tc-99m-peptide complex and 7.5 μl of vehicle alone or of any added drug in vehicle at 100-fold the desired concentration. The tubes were incubated in a 37° C. water bath with occasional mixing. The reaction was terminated by centrifuging 250 μl aliquots from the reaction for 10 seconds through 800 μl of a 75:25 mixture of silicon oil, density=1.050 (Aldrich) and mineral oil, density=0.875 (Acros). An aliquot of the aqueous phase was obtained to normalize extracellular concentration of the complex to cell-associated activity, then the oil and aqueous phases were aspirated and the cell pellet extracted in 0.5 ml of 1% SDS, 10 mM sodium borate. For tracer washout experiments, cells were first incubated to plateau uptake (10 min) in loading buffer (37° C.), collected by rapid centrifugation and the pellet resuspended in 50 ml MEBSS (4° C.) to clear extracellular tracer. Following another rapid spin, the cell pellet was resuspended in isotope-free MEBSS (37° C.) and the experiment terminated as above after various times in warm washout buffer. Radioactivity of the cell pellet, buffers and stocks were determined on a gamma counter (Cobra II, 130-165 keV window) and cell protein was determined by the BCA assay (Pierce). Transport data are reported as fmol Tc-complex (mg protein)^−1 (nM0)^− as previously described, with (nM0)^−1 representing total concentration of peptide conjugate in the extracellular buffer (Piwnica-Worms et al., Circulation, 82: 1826-1838, 1990).
Kinetic experiments of [^99mTc]D-Tat-peptide complexes were performed in Jurkat leukemia cells suspended in MEBSS with minor modification of the methods described in Example 6. Transport experiments were performed in siliconized microfuge tubes and initiated by addition of 732.5 μl of cells at 2-3×10^6 cells/ml to 10 μl of MEBSS containing [^99mTc]D-Tat-peptide complex and 7.5 μl of vehicle alone or of any added drug in vehicle at 100 fold the desired concentration. Unless stated otherwise, [^99mTc]D-Tat-peptide complex was added to MEBSS accompanied by a molar excess of unlabeled D-Tat-peptide as obtained directly from the labeling procedure. The final total peptide concentration was 7 nM to 8 μM (1-2 μCi/ml). The tube were incubated at 37° C. and the reaction terminated as previously described. For peptide washout experiments, cells were first incubated to plateau uptake (20 minutes) in MEBSS loading buffer at 37° C., collected by rapid centrifugation and the pellet resuspended in 50 ml of isotope-free MEBSS at 4° C. to clear extracellular tracer. Following another rapid spin, the cell pellet was resuspended in isotope-free MEBSS at 37° C. for various times and the reaction terminated as described previously. Protein assays and determination of gamma activity were as described in Example 6. Absolute concentration of total [Tc]Tat-peptide complex in solution was determined from the specific activity of Tc, based on equations of Mo/Tc generator equilibrium (Lamson et al., J. Nucl. Med., 16:639-641, 1975). […]

[2] = tested on: human Jurkat leukemia cells; assay: Washout of Tc-99m-Tat-peptide complexes from preloaded Jurkat cells; assay type: cell-based; details: for 30 min Washout: residual activity remaining within the cell 30 minutes after a wash in isotope-free buffer
Protocol: as §1
Kinetic experiments of [^99mTc]D-Tat-peptide complexes were performed in Jurkat leukemia cells suspended in MEBSS with minor modification of the methods described in Example 6. Transport experiments were performed in siliconized microfuge tubes and initiated by addition of 732.5 μl of cells at 2-3×10^6 cells/ml to 10 μl of MEBSS containing [^99mTc]D-Tat-peptide complex and 7.5 μl of vehicle alone or of any added drug in vehicle at 100 fold the desired concentration. Unless stated otherwise, [^99mTc]D-Tat-peptide complex was added to MEBSS accompanied by a molar excess of unlabeled D-Tat-peptide as obtained directly from the labeling procedure. The final total peptide concentration was 7 nM to 8 μM (1-2 μCi/ml). The tube were incubated at 37° C. and the reaction terminated as previously described. For peptide washout experiments, cells were first incubated to plateau uptake (20 minutes) in MEBSS loading buffer at 37° C., collected by rapid centrifugation and the pellet resuspended in 50 ml of isotope-free MEBSS at 4° C. to clear extracellular tracer. Following another rapid spin, the cell pellet was resuspended in isotope-free MEBSS at 37° C. for various times and the reaction terminated as described previously. Protein assays and determination of gamma activity were as described in Example 6. Absolute concentration of total [Tc]Tat-peptide complex in solution was determined from the specific activity of Tc, based on equations of Mo/Tc generator equilibrium (Lamson et al., J. Nucl. Med., 16:639-641, 1975). Transport data are reported as pmol of peptidei (mg protein)^−1 (μM0)^−1, wherein peptidei represents total peptide conjugate within the cells and (nM0)^−1 represents concentration of total peptide conjugate in the extracellular buffer.

32 (Ac-RRRRRRRRR-{Ahx-D‑k∗gc-NH2}; reading uncertain) [Conjugate 32]
Jurkat Cell Uptake ([1]; Jurkat cells): 129.11 ± 69.01 pmol (mg protein)^−1 (μM0)^−1

5e (Ac-RKKRRQRRR-{Ahx-D‑k∗gc-NH2}; reading uncertain) [Conjugate 5e]
Jurkat Cell Uptake ([1]; Jurkat cells): 48.81 ± 2.91 pmol (mg protein)^−1 (μM0)^−1

C[C@H]1CCC/C=C/[C@@H]2C[C@H](O)C[C@H]2[C@H](O)/C=C/C(=O)O1 [brefeldin A, reference compound]
effect of inhibitor on net cell uptake of the Tat-peptide metal complex ([1]; Jurkat cells, data not shown): no significant effect

1a (GRKKRRQRRR; acetyl; AHA-K*GC chelator, amide) [Conjugate 1a]
Jurkat Cell Uptake ([1]; Jurkat cells): 92.90 ± 21.17 pmol (mg protein)^−1 (μM0)^−1

acetyl-GRKKRRORRR-AHA-εKGC-amide(Tc^v-99m) trifluoroacetate [Example 2]
net uptake under isoelectric conditions compared to control buffer ([1]; 130 mM K+/20 mM Cl− and 1 μg/ml valinomycin, data not shown): not decreased
net accumulation in ice-cold buffer ([1]; 4° C., Jurkat cells): only modestly inhibited
time to approach plateau accumulation ([1]; Jurkat cells): ≤ 2 min
time plateau (quasi-steady state) was maintained ([1]; Jurkat cells continuously exposed to the complex): at least 1 hour
Steady-state value of accumulation ([1]; Jurkat cells, n=4): 116±3 fmol (mg protein)^−1 (nM0)^−1
20 min Uptake ([1]; Jurkat cells): 61.73 pmol (mg protein)^−1 (μM0)^−1
in/out ratio ([1]; given a typical cell water space of 4 μl (mg protein)^−1): ~30
extracellular concentration of half-maximal accumulation ([1]; plateau accumulation after 10 minutes, 7 nM to 8 μM, curve fitting): ~3 µM
U/W Ratio ([1]; Jurkat cells): 5.6
cell accumulation complete ([1]; within 2 minutes, extracellular concentration of peptide 950 nM, Jurkat cells): 90%
30 min Washout [2]: 10.99 pmol (mg protein)^−1 (μM0)^−1
residual level of peptide remaining in cells ([2]; slowly exchanging or retaining compartment after washout): < 10 % of peak activity
washout complete ([2]; within 20 minutes, preloaded Jurkat cells): ~90%

4d (Ac-RKKRRQRRR-{Ahx-K∗GC-NH2}; reading uncertain) [Conjugate 4d]
Jurkat Cell Uptake ([1]; Jurkat cells): 90.75 ± 41.04 pmol (mg protein)^−1 (μM0)^−1

2b (GRKKRRQRRR; acetyl; AHA-D-k*gc chelator, amide) [Conjugate 2b]
Jurkat Cell Uptake ([1]; Jurkat cells): 50.39 ± 25.73 pmol (mg protein)^−1 (μM0)^−1

Acetyl- GRKKRRQRRR-AHA- εKGC-amide [Conjugate 1]
20 min Uptake ([1]; Jurkat cells): 77.93 pmol (mg protein)^−1 (μM0)^−1
U/W Ratio ([1]; Jurkat cells): 3.2
30 min Washout [2]: 24.26 pmol (mg protein)^−1 (μM0)^−1

30 (Ac-RRRRRRRR-{Ahx-D‑k∗gc-NH2}; reading uncertain) [Conjugate 30]
Jurkat Cell Uptake ([1]; Jurkat cells): 59.02 ± 5.52 pmol (mg protein)^−1 (μM0)^−1

COc1cc2c(c(OC)c1OC)-c1ccc(OC)c(=O)cc1[C@@H](NC(C)=O)CC2 [Colchicine, reference compound]
effect of inhibitor on net cell uptake of the Tat-peptide metal complex ([1]; Jurkat cells, data not shown): no significant effect

8h (RKKRRQRRR-{Ahx-D‑k∗gc-NH2}; reading uncertain) [Conjugate 8h]
Jurkat Cell Uptake ([1]; Jurkat cells): 64.35 ± 1.63 pmol (mg protein)^−1 (μM0)^−1

C=C1[C@@H](C)[C@H]2[C@H](Cc3ccccc3)NC(=O)[C@]23[C@H](OC(C)=O)/C=C/[C@@](C)(O)C(=O)[C@@H](C)C/C=C/[C@H]3[C@@H]1O [cytochalasin D, reference compound]
effect of inhibitor on net cell uptake of the Tat-peptide metal complex ([1]; Jurkat cells, data not shown): no significant effect

COC(=O)Nc1nc2ccc(C(=O)c3cccs3)cc2n1C [nocodozole, reference compound]
effect of inhibitor on net cell uptake of the Tat-peptide metal complex ([1]; Jurkat cells, data not shown): no significant effect

acetyl-GRKKRRQRRR-GDEVDG-εKGC-amide (Ac-GRKKRRQRRRGDEVDG[εLys]GC-NH2; SMILES CC(=O)NCC(=O)N[C@@H](CCCNC(=N)N)C(=O)N[C@@H](CCCCN)C(=O)N[C@@H](CCCCN)C(=O)N[C@@H](CCCNC(=N)N)C(=O)N[C@@H](CCCNC(=N)N)C(=O)N[C@@H](CCC(N)=O)C(=O)N[C@@H](CCCNC(=N)N)C(=O)N[C@@H](CCCNC(=N)N)C(=O)N[C@@H](CCCNC(=N)N)C(=O)NCC(=O)N[C@@H](CC(=O)O)C(=O)N[C@@H](CCC(=O)O)C(=O)N[C@H](C(=O)N[C@@H](CC(=O)O)C(=O)NCC(=O)NCCCC[C@H](N)C(=O)NCC(=O)N[C@@H](CS)C(N)=O)C(C)C) [Example 8]
20 min Uptake ([1]; Jurkat cells): 317.92 pmol (mg protein)^−1 (μM0)^−1
U/W Ratio ([1]; Jurkat cells): 6.2
30 min Washout [2]: 50.87 pmol (mg protein)^−1 (μM0)^−1

12l (RKKRRQRRR; not fully specified; biotin; AHA-K*GC chelator, amide) [Conjugate 12l]
Jurkat Cell Uptake ([1]; Jurkat cells): 51.07 ± 11.78 pmol (mg protein)^−1 (μM0)^−1

28 (Ac-RRRRRRR-{Ahx-D‑k∗gc-NH2}; reading uncertain) [Conjugate 28]
Jurkat Cell Uptake ([1]; Jurkat cells): 34.73 ± 6.99 pmol (mg protein)^−1 (μM0)^−1

COC[C@H]1OC(=O)c2coc3c2[C@@]1(C)C1=C(C3=O)[C@@H]2CCC(=O)[C@@]2(C)C[C@H]1OC(C)=O [wortmannin, reference compound]
effect of inhibitor on net cell uptake of the Tat-peptide metal complex ([1]; Jurkat cells, data not shown): no significant effect

10j (GRKKRRQRRR; AHA linker, D-k*gc chelator, amide) [Conjugate 10j]
Jurkat Cell Uptake ([1]; Jurkat cells): 106.96 ± 1.55 pmol (mg protein)^−1 (μM0)^−1

CC(=O)O[C@H]1C(=O)[C@@]2(C)[C@H]([C@H](OC(=O)c3ccccc3)[C@]3(O)C[C@H](OC(=O)[C@H](O)[C@@H](NC(=O)c4ccccc4)c4ccccc4)C(C)=C1C3(C)C)[C@]1(OC(C)=O)CO[C@@H]1C[C@@H]2O [taxol, reference compound]
effect of inhibitor on net cell uptake of the Tat-peptide metal complex ([1]; Jurkat cells, data not shown): no significant effect
